Values quoted from earlier work, collected in PMC6099358 (Diabetes, Obesity & Metabolism, 2018).
Read-outs that look alike come from different tables or passages of the source.

System: participants with T1DM
Conditions: cited from earlier work; for DKA events, certain / DKA events, potential: 24 weeks

Row | Structure (SMILES) | DKA events, certain (5 mg) | DKA events, potential (5 mg) | DKA events, certain (10 mg) | DKA events, potential (10 mg) | DKA (vs placebo 4 [0.6%])
1 | CCOc1ccc(Cc2cc([C@@H]3O[C@H](CO)[C@@H](O)[C@H](O)[C@H]3O)ccc2Cl)cc1 [dapagliflozin] | 4 [1%] participants [%] | 16 [6%] participants [%] | 5 [2%] participants [%] | 19 [6%] participants [%] | 
2 | CCOc1ccc(Cc2cc([C@@H]3O[C@H](SC)[C@@H](O)[C@H](O)[C@H]3O)ccc2Cl)cc1 [sotagliflozin] |  |  |  |  | 21 [3.0%] participants [%]
